Data reported in patent US10689378B2, “Triazolopyridine compounds and uses thereof” (Novartis AG, priority 2016, dated 2020).

Columns and labels:
EED (1-441)-His protein = target: T1, EED (1-441)-His protein (Homo sapiens, UniProt O75530); assay: EED-H3K27Me3 peptide competition binding assay by AlphaScreen; conditions: read-out: (a) IC50, EED Alphascreen binding Qualified
T1 construct: 30 nM EED (1-441)-His protein
Method in brief: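 Serially diluted compound (12 points, 3-fold) incubated 20 min with 30 nM EED(1-441)-His and 15 nM biotin-H3K27Me3(19-33) peptide in 25 mM HEPES pH 8, 0.02% Tween-20, 0.5% BSA. Ni-chelate acceptor/streptavidin donor beads (10 μg/mL each) added, 1 h rt dark; 615 nm emission normalized to controls, dose-response fit for IC50.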

[1] = target: wild type PRC2 (wtPRC2) complex (Homo sapiens, UniProt O75530); assay: EED LC-MS assay (SAH production by PRC2); type: biochemical; conditions: read-out: (b) IC50, EED LC-MS Qualified
Method in brief: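 Pentameric PRC2 (EZH2, SUZ12, EED, Rbap48, AEBP), 12 nM final, preincubated 20 min with compound and SAM, then 1.5 μM biotinylated H3K27me0 peptide, 1 μM SAM, pH 8.0, 120 min at rt. SAH quantified by LC-MS/MS with d4-SAH; control-normalized activity fitted for IC50.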

[2] = test system: H3K27 methylation in G401 cell; assay: ELISA (H3K27 methylation) assay in G401 cells; type: cell-based, human; conditions: Homo sapiens, G-401, read-out: (c) IC50, ELISA Qualified
Method in brief: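 G401 cells treated 48 h with 3-fold dilutions (8 or 12 points, top 20 μM). Acid-extracted histones probed by ELISA for H3K27me3 or H3K27me2 with ECL readout, normalized to total H3. Percent inhibition versus DMSO fitted to dose-response curve for IC50.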

Chain of wild type PRC2 (wtPRC2) complex (O75530 whole entry): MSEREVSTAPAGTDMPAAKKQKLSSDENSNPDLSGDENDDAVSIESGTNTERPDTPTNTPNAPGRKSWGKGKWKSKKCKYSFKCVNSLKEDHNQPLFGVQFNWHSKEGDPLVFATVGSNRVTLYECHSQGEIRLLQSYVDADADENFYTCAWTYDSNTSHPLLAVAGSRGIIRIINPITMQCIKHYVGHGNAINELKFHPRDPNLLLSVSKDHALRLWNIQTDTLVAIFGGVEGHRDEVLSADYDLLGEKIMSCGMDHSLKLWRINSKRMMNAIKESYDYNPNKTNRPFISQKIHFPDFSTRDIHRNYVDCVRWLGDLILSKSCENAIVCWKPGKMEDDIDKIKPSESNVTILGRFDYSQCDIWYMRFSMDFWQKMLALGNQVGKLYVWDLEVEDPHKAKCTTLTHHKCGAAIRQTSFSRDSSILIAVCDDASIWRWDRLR
Chain of wild type PRC2 (wtPRC2) complex (Q15910 whole entry partner): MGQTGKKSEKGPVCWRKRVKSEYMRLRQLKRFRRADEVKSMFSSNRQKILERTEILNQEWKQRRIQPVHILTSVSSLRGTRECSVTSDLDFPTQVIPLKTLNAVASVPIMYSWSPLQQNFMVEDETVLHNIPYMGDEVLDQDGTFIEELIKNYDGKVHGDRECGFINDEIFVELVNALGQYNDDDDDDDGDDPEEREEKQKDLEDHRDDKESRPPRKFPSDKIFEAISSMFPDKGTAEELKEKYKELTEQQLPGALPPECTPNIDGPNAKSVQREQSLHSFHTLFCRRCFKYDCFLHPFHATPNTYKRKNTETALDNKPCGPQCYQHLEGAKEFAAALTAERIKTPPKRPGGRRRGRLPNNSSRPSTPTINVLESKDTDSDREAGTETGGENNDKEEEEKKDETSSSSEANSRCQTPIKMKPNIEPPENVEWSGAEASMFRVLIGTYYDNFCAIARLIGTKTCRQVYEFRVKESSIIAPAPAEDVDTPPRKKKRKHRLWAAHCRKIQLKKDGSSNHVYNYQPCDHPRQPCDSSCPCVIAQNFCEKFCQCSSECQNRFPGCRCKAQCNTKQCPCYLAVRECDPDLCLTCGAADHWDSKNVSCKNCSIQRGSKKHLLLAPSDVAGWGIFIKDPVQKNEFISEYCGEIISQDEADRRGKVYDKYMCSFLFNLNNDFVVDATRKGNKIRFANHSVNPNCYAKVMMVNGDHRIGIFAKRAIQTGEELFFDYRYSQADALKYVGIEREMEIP
Chain of wild type PRC2 (wtPRC2) complex (Q15022 whole entry partner): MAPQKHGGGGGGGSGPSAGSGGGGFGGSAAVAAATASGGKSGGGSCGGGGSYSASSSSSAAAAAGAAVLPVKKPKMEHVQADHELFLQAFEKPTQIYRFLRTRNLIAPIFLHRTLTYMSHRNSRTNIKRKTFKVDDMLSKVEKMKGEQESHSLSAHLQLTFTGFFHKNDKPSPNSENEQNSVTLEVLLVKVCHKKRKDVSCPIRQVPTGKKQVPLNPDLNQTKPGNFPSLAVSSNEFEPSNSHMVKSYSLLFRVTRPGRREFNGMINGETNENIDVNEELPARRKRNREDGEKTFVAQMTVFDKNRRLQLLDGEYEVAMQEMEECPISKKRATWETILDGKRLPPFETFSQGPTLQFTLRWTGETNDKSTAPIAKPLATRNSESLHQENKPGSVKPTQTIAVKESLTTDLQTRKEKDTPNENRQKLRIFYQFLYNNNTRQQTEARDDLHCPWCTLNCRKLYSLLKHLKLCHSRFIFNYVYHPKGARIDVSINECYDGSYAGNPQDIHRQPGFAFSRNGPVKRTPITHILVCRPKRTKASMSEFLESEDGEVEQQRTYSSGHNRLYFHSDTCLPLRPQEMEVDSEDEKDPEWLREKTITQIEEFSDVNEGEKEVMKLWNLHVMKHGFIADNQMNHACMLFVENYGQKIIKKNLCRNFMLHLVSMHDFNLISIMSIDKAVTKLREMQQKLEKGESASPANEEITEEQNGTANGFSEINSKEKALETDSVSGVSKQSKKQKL
Chain of wild type PRC2 (wtPRC2) complex (Q09028 whole entry partner): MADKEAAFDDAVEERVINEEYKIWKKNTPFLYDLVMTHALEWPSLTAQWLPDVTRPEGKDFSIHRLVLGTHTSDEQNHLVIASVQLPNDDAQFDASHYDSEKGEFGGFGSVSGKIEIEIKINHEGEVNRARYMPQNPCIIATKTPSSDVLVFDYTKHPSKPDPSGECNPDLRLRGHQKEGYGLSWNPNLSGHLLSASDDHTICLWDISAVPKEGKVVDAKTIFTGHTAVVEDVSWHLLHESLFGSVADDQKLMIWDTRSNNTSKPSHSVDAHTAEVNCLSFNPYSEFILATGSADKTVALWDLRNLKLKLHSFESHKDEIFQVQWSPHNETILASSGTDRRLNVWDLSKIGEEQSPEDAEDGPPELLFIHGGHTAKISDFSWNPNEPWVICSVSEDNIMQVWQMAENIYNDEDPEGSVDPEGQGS
Chain of wild type PRC2 (wtPRC2) complex (Q6ZN18 whole entry partner): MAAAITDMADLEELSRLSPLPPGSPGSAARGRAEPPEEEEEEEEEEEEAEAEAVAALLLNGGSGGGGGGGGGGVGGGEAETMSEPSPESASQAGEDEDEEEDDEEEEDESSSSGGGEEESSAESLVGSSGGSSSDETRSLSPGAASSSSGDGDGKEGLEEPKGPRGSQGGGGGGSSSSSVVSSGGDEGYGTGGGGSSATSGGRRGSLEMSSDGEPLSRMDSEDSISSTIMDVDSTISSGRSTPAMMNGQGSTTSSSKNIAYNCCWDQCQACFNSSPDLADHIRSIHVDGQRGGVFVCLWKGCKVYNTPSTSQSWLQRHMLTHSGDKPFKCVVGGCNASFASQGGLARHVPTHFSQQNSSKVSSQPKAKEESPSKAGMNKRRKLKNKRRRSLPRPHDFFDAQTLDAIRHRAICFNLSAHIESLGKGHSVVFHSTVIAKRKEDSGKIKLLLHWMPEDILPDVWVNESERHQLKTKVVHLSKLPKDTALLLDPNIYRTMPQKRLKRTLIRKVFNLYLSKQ
T1 sequence (O75530 whole entry): as the sequence (O75530 whole entry) above

| SMILES | IC50 (EED (1-441)-His protein) | IC50 [1] | IC50 [2] |
| --- | --- | --- | --- |
| COc1cc(F)ccc1CNc1ccc(-c2ccc(S(C)(=O)=O)cc2)c2nncn12 [Example 83, N-(4-fluoro-2-methoxybenzyl)-8-(4-(methylsulfonyl)phenyl)-[1,2,4]triazolo[4,3-a]pyridin-5-amine] | 55.7 nM | 491 nM | 815 nM |
| COc1ccccc1CNc1ccc(-c2ccc(N3CCN(C(C)C)CC3)nc2)c2nncn12 [Example 87, 8-(6-(4-isopropylpiperazin-1-yl)pyridin-3-yl)-N-(2-methoxybenzyl)-[1,2,4] triazolo[4,3-a]pyridin-5-amine] | 39.2 nM | 239 nM | 90.1 nM |
| COc1ccccc1CNc1ccc(-c2ccnc(C)c2)c2nncn12 [Example 91, N-(2-methoxybenzyl)-8-(2-methylpyridin-4-yl)-[1,2,4] triazolo[4,3-a]pyridin-5-amine] | 37.5 nM | 278 nM | 60.8 nM |
| COc1ccccc1CNc1ccc(-c2cccc(CCN(C)C)c2)c2nncn12 [Example 94, 8-(3-(2-(dimethylamino)ethyl)phenyl)-N-(2-methoxybenzyl)-[1,2,4]triazolo[4,3-a] pyridin-5-amine] | 26.5 nM | 62.3 nM | 41.1 nM |
| COc1cccc(F)c1CNc1ccc(-c2ccc(S(N)(=O)=O)cc2)c2nncn12 [Example 100, 4-(5-((2-fluoro-6-methoxybenzyl)amino)-[1,2,4]triazolo[4,3-a]pyridin-8-yl)benzenesulfonamide] | 12.4 nM | 139 nM | 40 nM |
| COc1ccccc1CNc1ccc(-c2ccc(S(=O)(=O)NCCO)cc2)c2nncn12 [Example 101, N-(2-hydroxyethyl)-4-(5-((2-methoxybenzyl)amino)-[1,2,4]triazolo[4,3-a]pyridin-8-yl)benzenesulfonamide] | 50.1 nM | 2580 nM | 102 nM |
| COc1ccccc1CNc1ccc(-c2ccc([S+](C)[O-])cc2)c2nncn12 (stereo not drawn) [Example 102, N-(2-methoxybenzyl)-8-(4-(methylsulfinyl)phenyl)-[1,2,4]triazolo[4,3-a]pyridin-5-amine] | 61.9 nM | 1460 nM | 68.9 nM |
| COc1cccc(F)c1CNc1ccc(-c2ccc(NS(C)(=O)=O)cc2)c2nncn12 [Example 105, N-(4-(5-((2-fluoro-6-methoxybenzyl)amino)-[1,2,4]triazolo[4,3-a]pyridin-8-yl)phenyl)methane sulfonamide] | 21.5 nM | 281 nM | 43.3 nM |
| COc1cccc(F)c1CNc1ccc(-c2ccc(NS(C)(=O)=O)c(F)c2)c2nncn12 [Example 106, N-(2-fluoro-4-(5-((2-fluoro-6-methoxybenzyl)amino)-[1,2,4]triazolo[4,3-a]pyridin-8-yl)phenyl) methanesulfonamide] | 46.8 nM | 454 nM | 53 nM |
| COc1cccc(F)c1CNc1ccc(-c2ccc(C(=O)N3CCCC3)cc2)c2nncn12 [Example 107, (4-(5-((2-fluoro-6-methoxy benzyl)amino)-[1,2,4]triazolo[4,3-a]pyridin-8-yl)phenyl)(pyrrolidin-1-yl) methanone] | 21.4 nM | 108 nM | 12.6 nM |
| COc1cccc(F)c1CNc1ccc(-c2cnc(N3CCN(C(C)C)CC3)c(C(F)(F)F)c2)c2nncn12 [Example 108, N-(2-fluoro-6-methoxybenzyl)-8-(6-(4-isopropylpiperazin-1-yl)-5-(trifluoromethyl)pyridin-3-yl)-[1,2,4]triazolo[4,3-a] pyridin-5-amine] | 70.8 nM | 350 nM | 191 nM |
| COc1cccc(F)c1CNc1ccc(-c2cnc(N3CCN(C(C)C)CC3)c(Cl)c2)c2nncn12 [Example 109, 8-(5-chloro-6-(4-isopropylpiperazin-1-yl)pyridin-3-yl)-N-(2-fluoro-6-methoxybenzyl)-[1,2,4] triazolo[4,3-a]pyridin-5-amine] | 27.1 nM | 299 nM | 103 nM |
| COc1ccccc1CNc1ccc(-c2ccc(C)nc2)c2nncn12 [Example 111, N-(2-methoxybenzyl)-8-(6-methylpyridin-3-yl)-[1,2,4] triazolo[4,3-a]pyridin-5-amine] | 76.5 nM | 405 nM | 56.7 nM |
| COc1cccc(F)c1CNc1ccc(-c2ccc(S(C)(=O)=O)nc2)c2nncn12 [Example 112, N-(2-fluoro-6-methoxybenzyl)-8-(6-(methylsulfonyl)pyridin-3-yl)-[1,2,4]triazolo[4,3-a] pyridin-5-amine] | 9.8 nM | 256 nM | 4.9 nM |
| COc1cccc(F)c1CNc1ccc(-c2ccncc2)c2nncn12 [Example 113, N-(2-fluoro-6-methoxybenzyl)-8-(pyridin-4-yl)-[1,2,4]triazolo[4,3-a]pyridin-5-amine] | 38.7 nM | 117 nM | 27.4 nM |
| COc1cccc(F)c1CNc1ccc(-c2cccnc2)c2nncn12 [Example 114, N-(2-fluoro-6-methoxybenzyl)-8-(pyridin-3-yl)-[1,2,4]triazolo[4,3-a]pyridin-5-amine] | 16 nM | 90.6 nM | 9.5 nM |
| COc1ccccc1CNc1ccc(-c2ccc(CCN(C)C)cc2)c2nncn12 [Example 123, 8-(4-(2-(dimethylamino)ethyl)phenyl)-N-(2-methoxybenzyl)-[1,2,4]triazolo[4,3-a] pyridin-5-amine] | 42 nM | 368 nM | 99.4 nM |
| COc1cccc(F)c1CNc1ccc(-c2c(C)nn(C)c2C)c2nncn12 [Example 124, N-(2-fluoro-6-methoxybenzyl)-8-(1,3,5-trimethyl-1H-pyrazol-4-yl)-[1,2,4] triazolo[4,3-a]pyridin-5-amine] | 52.1 nM | 64.5 nM | 24.7 nM |
| COc1cccc(F)c1CNc1ccc(-c2ccc(S(=O)(=O)NCCO)cc2)c2nncn12 [Example 126, 4-(5-((2-fluoro-6-methoxybenzyl)amino)-[1,2,4]triazolo[4,3-a]pyridin-8-yl)-N-(2-hydroxyethyl) benzenesulfonamide] | 11.5 nM | 1740 nM | 5 nM |
| COc1ccccc1CNc1ccc(-c2ccc(S(=O)(=O)C(C)C)nc2)c2nncn12 [Example 127, 8-(6-(isopropylsulfonyl)pyridin-3-yl)-N-(2-methoxybenzyl)-[1,2,4]triazolo[4,3-a] pyridin-5-amine] | 21.7 nM | 572 nM | 14.2 nM |
| COc1ccccc1CNc1ccc(-c2ccc(S(=O)(=O)C3CCN(C)CC3)cc2)c2nncn12 [Example 128, N-(2-methoxybenzyl)-8-(4-((1-methylpiperidin-4-yl)sulfonyl)phenyl)-[1,2,4] triazolo[4,3-a]pyridin-5-amine] | 33.2 nM | 224 nM | 18.5 nM |
| COc1cccc(F)c1CNc1ccc(-c2ccc(N3CCN(C(C)C)CC3)nc2)c2nncn12 [Example 130, N-(2-fluoro-6-methoxybenzyl)-8-(6-(4-isopropylpiperazin-1-yl)pyridin-3-yl)-[1,2,4]triazolo[4,3-a]pyridin-5-amine] | 31.1 nM | 62.5 nM | 80.9 nM |
| COc1cccc(F)c1CNc1ccc(-c2cnc(N3CCN(C(C)C)CC3)nc2)c2nncn12 [Example 131, N-(2-fluoro-6-methoxybenzyl)-8-(2-(4-isopropylpiperazin-1-yl)pyrimidin-5-yl)-[1,2,4]triazolo[4,3-a] pyridin-5-amine] | 32.2 nM | 181 nM | 81.2 nM |
| COc1cccc(F)c1CNc1ccc(-c2ccc(S(=O)(=O)C3CCNCC3)cc2)c2nncn12 [Example 132, N-(2-fluoro-6-methoxybenzyl)-8-(4-(piperidin-4-ylsulfonyl)phenyl)-[1,2,4] triazolo[4,3-a]pyridin-5-amine] | 69.1 nM | 64.9 nM | 21.8 nM |
| COc1cccc(F)c1CNc1ccc(-c2ccc(S(=O)(=O)C3CCN(C)CC3)cc2)c2nncn12 [Example 133, N-(2-fluoro-6-methoxybenzyl)-8-(4-((1-methylpiperidin-4-yl)sulfonyl)phenyl)-[1,2,4]triazolo[4,3-a] pyridin-5-amine] | 5 nM | 65.8 nM | 5.3 nM |
| COc1cccc(F)c1CNc1ccc(-c2c(C)noc2C)c2nncn12 [Example 139, 8-(3,5-dimethylisoxazol-4-yl)-N-(2-fluoro-6-methoxybenzyl)-[1,2,4]triazolo[4,3-a] pyridin-5-amine] | 26 nM | 46.5 nM | 11.7 nM |
| COc1cccc(F)c1CNc1ccc(-c2cncc(S(C)(=O)=O)c2)c2nncn12 [Example 140, N-(2-fluoro-6-methoxybenzyl)-8-(5-(methylsulfonyl)pyridin-3-yl)-[1,2,4]triazolo[4,3-a] pyridin-5-amine] | 17.5 nM | 268 nM | 18.8 nM |
| COc1cccc(F)c1CNc1ccc(-c2cccc(S(C)(=O)=O)c2)c2nncn12 [Example 142, N-(2-fluoro-6-methoxybenzyl)-8-(3-(methylsulfonyl)phenyl)-[1,2,4]triazolo[4,3-a]pyridin-5-amine] | 13.6 nM | 106 nM | 34.8 nM |
